Legend:
[1] = Colorant stabilization effect (photostabilizer, sunlight exposure); set-up: key to Sunlight exposure (80 MJ) Appearance: A: No change; B: No almost change; C: Yes change; key to Sunlight exposure (80 MJ) ΔE: ΔE color difference (Lab) vs. color before sunlight exposure
Summary of the method: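 Samples exposed to sunlight (around 80 MJ); appearance change judged visually. Color difference (ΔE) measured by spectrophotometer in Lab coordinates, calculated against the same sample's color before exposure.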

skin (antebrachium) = experiment: Skin irritation test: occlusive patch test; assay type: in vivo, human; conditions: 10 wt % ultraviolet absorbent, occlusive patch 24 hours
Experimental: Sample (10 wt % of ultraviolet absorbent) is the same as test example 2. An occlusive patch test was carried out in the antebrachium part of healthy men and women subjects by finchamber for 24 hours. Each group was twenty subjects. [table] Each of the calculated average scores was evaluated by the following evaluation standard. A: average score is 0. B: average score is over 0 and less than 1. C: average score is 1 or more and less than 2. D: average score is 2 or more.

[2] = Red No. 227 0.0001 wt % + Yellow No. 5 0.0001 wt %, photostabilizer 0.05 wt %
[3] = Red No. 227 0.0001 wt % + Yellow No. 5 0.0001 wt %, photostabilizer 0.1 wt %
[4] = Red No. 227 0.0001 wt % + Yellow No. 203 0.0001 wt %, photostabilizer 0.05 wt %
[5] = Red No. 227 0.0001 wt % + Yellow No. 203 0.0001 wt %, photostabilizer 0.1 wt %
[6] = Red No. 227 0.0001 wt % + Yellow No. 203 0.0001 wt %, photostabilizer 0.3 wt %
[7] = Red No. 227 0.0001 wt %, photostabilizer 0.02 wt %
[8] = Red No. 227 0.0001 wt %, photostabilizer 0.05 wt %
[9] = Red No. 227 0.0001 wt %, photostabilizer 0.1 wt %
[10] = Red No. 401 0.0001 wt % + Blue No. 1 0.00001 wt %, photostabilizer 0.03 wt %
[11] = Red No. 401 0.0001 wt % + Blue No. 1 0.00001 wt %, photostabilizer 0.05 wt %
[12] = Red No. 401 0.0001 wt % + Blue No. 1 0.00001 wt %, photostabilizer 0.1 wt %
[13] = Red No. 401 0.0001 wt % + Green No. 3 0.00001 wt %, photostabilizer 0.03 wt %
[14] = Red No. 401 0.0001 wt % + Green No. 3 0.00001 wt %, photostabilizer 0.05 wt %
[15] = Red No. 401 0.0001 wt % + Green No. 3 0.00001 wt %, photostabilizer 0.3 wt %
[16] = Red No. 401 0.0001 wt %, photostabilizer 0.05 wt %
[17] = Red No. 401 0.0001 wt %, photostabilizer 0.1 wt %
[18] = Red No. 401 0.0001 wt %, photostabilizer 0.3 wt %
[19] = Red No. 401 0.001 wt %, photostabilizer 0.03 wt %
[20] = Red No. 401 0.001 wt %, photostabilizer 0.05 wt %
[21] = Red No. 401 0.001 wt %, photostabilizer 0.1 wt %
[22] = Yellow No. 5 0.0001 wt %, photostabilizer 0.05 wt %
[23] = Yellow No. 5 0.0001 wt %, photostabilizer 0.1 wt %
[24] = Yellow No. 5 0.0001 wt %, photostabilizer 0.3 wt %
[25] = Yellow No. 5 0.001 wt %, photostabilizer 0.01 wt %
[26] = Yellow No. 5 0.001 wt %, photostabilizer 0.05 wt %
[27] = Yellow No. 5 0.001 wt %, photostabilizer 0.1 wt %
[28] = Yellow No. 203 0.0001 wt % + Yellow No. 5 0.0001 wt %, photostabilizer 0.03 wt %
[29] = Yellow No. 203 0.0001 wt % + Yellow No. 5 0.0001 wt %, photostabilizer 0.05 wt %
[30] = Yellow No. 203 0.0001 wt % + Yellow No. 5 0.0001 wt %, photostabilizer 0.1 wt %
[31] = Yellow No. 203 0.0001 wt %, photostabilizer 0.05 wt %
[32] = Yellow No. 203 0.0001 wt %, photostabilizer 0.1 wt %
[33] = Yellow No. 203 0.0001 wt %, photostabilizer 0.3 wt %
[34] = Yellow No. 203 0.001 wt %, photostabilizer 0.02 wt %
[35] = Yellow No. 203 0.001 wt %, photostabilizer 0.05 wt %
[36] = Yellow No. 203 0.001 wt %, photostabilizer 0.1 wt %

Oc1nncc(N2CCOCC2)c1N1CCOCC1 [4,5-Dimorpholino-3-hydroxypyridazine]
Sunlight exposure (80 MJ) Appearance [1, 2]: A
Sunlight exposure (80 MJ) ΔE [1, 2]: 0.59
Sunlight exposure (80 MJ) Appearance [1, 3]: A
Sunlight exposure (80 MJ) ΔE [1, 3]: 0.18
Sunlight exposure (80 MJ) Appearance [1, 4]: A
Sunlight exposure (80 MJ) ΔE [1, 4]: 0.78
Sunlight exposure (80 MJ) Appearance [1, 5]: A
Sunlight exposure (80 MJ) ΔE [1, 5]: 0.35
Sunlight exposure (80 MJ) Appearance [1, 6]: A
Sunlight exposure (80 MJ) ΔE [1, 6]: 0.14
Sunlight exposure (80 MJ) Appearance [1, 7]: A
Sunlight exposure (80 MJ) ΔE [1, 7]: 0.71
Sunlight exposure (80 MJ) Appearance [1, 8]: A
Sunlight exposure (80 MJ) ΔE [1, 8]: 0.49
Sunlight exposure (80 MJ) Appearance [1, 9]: A
Sunlight exposure (80 MJ) ΔE [1, 9]: 0.22
Sunlight exposure (80 MJ) Appearance [1, 10]: A
Sunlight exposure (80 MJ) ΔE [1, 10]: 0.95
Sunlight exposure (80 MJ) Appearance [1, 11]: A
Sunlight exposure (80 MJ) ΔE [1, 11]: 0.32
Sunlight exposure (80 MJ) Appearance [1, 12]: A
Sunlight exposure (80 MJ) ΔE [1, 12]: 0.07
Sunlight exposure (80 MJ) Appearance [1, 13]: A
Sunlight exposure (80 MJ) ΔE [1, 13]: 0.98
Sunlight exposure (80 MJ) Appearance [1, 14]: A
Sunlight exposure (80 MJ) ΔE [1, 14]: 0.73
Sunlight exposure (80 MJ) Appearance [1, 15]: A
Sunlight exposure (80 MJ) ΔE [1, 15]: 0.14
Sunlight exposure (80 MJ) Appearance [1, 16]: A
Sunlight exposure (80 MJ) ΔE [1, 16]: 0.82
Sunlight exposure (80 MJ) Appearance [1, 17]: A
Sunlight exposure (80 MJ) ΔE [1, 17]: 0.56
Sunlight exposure (80 MJ) Appearance [1, 18]: A
Sunlight exposure (80 MJ) ΔE [1, 18]: 0.19
Sunlight exposure (80 MJ) Appearance [1, 19]: A
Sunlight exposure (80 MJ) ΔE [1, 19]: 0.95
Sunlight exposure (80 MJ) Appearance [1, 20]: A
Sunlight exposure (80 MJ) ΔE [1, 20]: 0.71
Sunlight exposure (80 MJ) Appearance [1, 21]: A
Sunlight exposure (80 MJ) ΔE [1, 21]: 0.45
Sunlight exposure (80 MJ) Appearance [1, 22]: A
Sunlight exposure (80 MJ) ΔE [1, 22]: 0.59
Sunlight exposure (80 MJ) Appearance [1, 23]: A
Sunlight exposure (80 MJ) ΔE [1, 23]: 0.71
Sunlight exposure (80 MJ) Appearance [1, 24]: A
Sunlight exposure (80 MJ) ΔE [1, 24]: 0.22
Sunlight exposure (80 MJ) Appearance [1, 25]: A
Sunlight exposure (80 MJ) ΔE [1, 25]: 0.61
Sunlight exposure (80 MJ) Appearance [1, 26]: A
Sunlight exposure (80 MJ) ΔE [1, 26]: 0.43
Sunlight exposure (80 MJ) Appearance [1, 27]: A
Sunlight exposure (80 MJ) ΔE [1, 27]: 0.22
Sunlight exposure (80 MJ) Appearance [1, 28]: A
Sunlight exposure (80 MJ) ΔE [1, 28]: 0.52
Sunlight exposure (80 MJ) Appearance [1, 29]: A
Sunlight exposure (80 MJ) ΔE [1, 29]: 0.37
Sunlight exposure (80 MJ) Appearance [1, 30]: A
Sunlight exposure (80 MJ) ΔE [1, 30]: 0.12
Sunlight exposure (80 MJ) Appearance [1, 31]: A
Sunlight exposure (80 MJ) ΔE [1, 31]: 0.22
Sunlight exposure (80 MJ) Appearance [1, 32]: A
Sunlight exposure (80 MJ) ΔE [1, 32]: 0.10
Sunlight exposure (80 MJ) Appearance [1, 33]: A
Sunlight exposure (80 MJ) ΔE [1, 33]: 0.05
Sunlight exposure (80 MJ) Appearance [1, 34]: A
Sunlight exposure (80 MJ) ΔE [1, 34]: 0.25
Sunlight exposure (80 MJ) Appearance [1, 35]: A
Sunlight exposure (80 MJ) ΔE [1, 35]: 0.18
Sunlight exposure (80 MJ) Appearance [1, 36]: A
Sunlight exposure (80 MJ) ΔE [1, 36]: 0.08
change of appearance of the composition ([1]; summary of Tables 11 to 13): small
color difference ΔE ([1]; summary of Tables 11 to 13): very small in comparison with other photostabilizers
Judgment (patch test, average skin reaction score) (skin (antebrachium); Cream): A (average score is 0.)
Judgment (patch test, average skin reaction score) (skin (antebrachium); Lotion): A (average score is 0.)
